Source: patent US20240018153A1, “BENZENESULFONAMIDE DERIVATIVES AND USES THEREOF” (2692372 ONTARIO, INC., priority 2020, published 2024)
Each block holds one compound with its values, some of them ahead of it.

Key:
EGFR = EGFR (Homo sapiens (Human), UniProt P00533); experiment: HTRF KinEASE-TK kinase assay, EGFR; format: biochemical; settings: 3 h preincubation; for remaining activity at 1 µM: 1 μM compound, read-out: % EGFR Remaining activity vs DMSO (1 μM, 3 h); for remaining activity at 10 µM: 10 μM compound, read-out: % EGFR Remaining activity vs DMSO (10 μM, 3 h)
Summary of the method: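 HTRF KinEASE-TK format: EGFR pre-incubated with compound at 1 and 10 uM final (0.5% DMSO) in kinase buffer with 2 mM MnCl2, 5 mM MgCl2 and 1 mM TCEP.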

BTK [1] = target: T1, BTK (Homo sapiens (Human), UniProt Q06187); experiment: HTRF KinEASE-TK kinase assay, BTK; format: biochemical; settings: 3 h preincubation; for remaining activity at 1 µM: 1 μM compound, read-out: % BTK Remaining activity vs DMSO (1 μM, 3 h); for remaining activity at 10 µM: 10 μM compound, read-out: % BTK Remaining activity vs DMSO (10 μM, 3 h); for IC50: dose response, read-out: BTK Inhibition IC50
Summary of the method: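 BTK activity in HTRF KinEASE-TK format, buffer containing 10 mM MnCl2, 5 mM MgCl2, 1 uM ATPγS and 1 mM TCEP; 45 min reaction with biotinylated substrate and ATP.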

FGFR4 = FGFR4 (Homo sapiens (Human), UniProt P22455); experiment: HTRF KinEASE-TK kinase assay, FGFR4; format: biochemical; settings: for IC50: dose response; for remaining activity at 1 µM: read-out: % FGFR4 Remaining activity vs DMSO (1 μM, 3 h); for remaining activity at 10 µM: read-out: % FGFR4 Remaining activity vs DMSO (10 μM, 3 h)
Summary of the method: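 Promega FGFR4 at 0.333 ng/ul (5.12 nM) preincubated with or without inhibitor for 3 h at room temperature, then reaction started with biotinylated substrate and ATP. Stopped with EDTA detection buffer containing 31.25 nM SA-XL665 and Eu-antibody; after 60 min, HTRF 665/620 nm ratio read as substrate phosphorylation.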

JAK3 = JAK3 (Homo sapiens (Human), UniProt P52333); experiment: HTRF KinEASE-TK kinase assay, JAK3; format: biochemical; settings: for remaining activity at 1 µM: read-out: % JAK3 Remaining activity vs DMSO (1 μM, 3 h); for remaining activity at 10 µM: read-out: % JAK3 Remaining activity vs DMSO (10 μM, 3 h)
Summary of the method: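 Promega JAK3 at 0.21 nM was preincubated with inhibitor for 3 h at room temperature before biotinylated substrate and ATP were added. The reaction was stopped with EDTA detection buffer containing 31.25 nM SA-XL665 and Eu-antibody. After 60 min, the HTRF 665/620 nm emission ratio reflected substrate phosphorylation.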

BMX = BMX (Homo sapiens (Human), UniProt P51813); experiment: HTRF KinEASE-TK kinase assay, BMX; format: biochemical; settings: for remaining activity at 1 µM: 1 uM compound; for remaining activity at 1 µM / remaining activity at 10 µM: 3 h preincubation; for remaining activity at 10 µM: 10 uM compound; for IC50: dose response
Summary of the method: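 Purchased BMX (0.333 ng/ul, 3.03 nM) was preincubated with or without inhibitor for 3 h at room temperature, then biotinylated substrate and ATP were added. Reactions were stopped with EDTA-containing buffer holding 31.25 nM SA-XL665 and Eu-antibody, and after 60 min phosphorylation was read as the HTRF 665/620 nm emission ratio.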

BTK [2] = target: T1, BTK; experiment: Ramos RA1 cell lysis and immunoassay, phospho-BTK (Y223) inhibition; format: cell-based; parameters: key: X: BTK bound and autophosphoration of BTK inhibited in cells; settings: RAMOS cells, compound concentration 1 μM
Summary of the method: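 Ramos RA1 cells treated with compound or DMSO for 24 h at 37° C., lysed in RIPA, analysed by Simple Western. Total BTK normalised to β-actin, pBTK (Y223) to total-protein reagent; both expressed relative to DMSO control.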

RIPK2 = RIPK2 (Homo sapiens (Human), UniProt O43353); experiment: In vitro RIPK2 inhibition; format: biochemical; settings: for remaining activity at 1 µM: read-out: % RIPK2 Remaining activity vs DMSO (1 μM, 3 h); for remaining activity at 10 µM: read-out: % RIPK2 Remaining activity vs DMSO (10 μM, 3 h)
Chain of RIPK2 (O43353 whole entry, species assumed): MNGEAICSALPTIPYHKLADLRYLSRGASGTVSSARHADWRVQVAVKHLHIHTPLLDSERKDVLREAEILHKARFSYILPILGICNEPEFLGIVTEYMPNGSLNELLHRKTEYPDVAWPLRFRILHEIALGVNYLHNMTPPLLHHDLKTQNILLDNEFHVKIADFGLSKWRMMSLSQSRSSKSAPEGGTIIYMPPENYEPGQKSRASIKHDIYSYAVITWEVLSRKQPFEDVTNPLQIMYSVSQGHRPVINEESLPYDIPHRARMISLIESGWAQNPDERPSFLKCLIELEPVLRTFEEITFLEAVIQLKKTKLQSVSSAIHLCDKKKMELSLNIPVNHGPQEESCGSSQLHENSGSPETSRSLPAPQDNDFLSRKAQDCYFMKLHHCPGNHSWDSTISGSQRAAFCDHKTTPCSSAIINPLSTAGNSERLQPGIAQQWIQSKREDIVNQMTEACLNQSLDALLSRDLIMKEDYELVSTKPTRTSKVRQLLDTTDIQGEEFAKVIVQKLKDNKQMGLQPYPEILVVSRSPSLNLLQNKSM

Chain of BMX (P51813 whole entry): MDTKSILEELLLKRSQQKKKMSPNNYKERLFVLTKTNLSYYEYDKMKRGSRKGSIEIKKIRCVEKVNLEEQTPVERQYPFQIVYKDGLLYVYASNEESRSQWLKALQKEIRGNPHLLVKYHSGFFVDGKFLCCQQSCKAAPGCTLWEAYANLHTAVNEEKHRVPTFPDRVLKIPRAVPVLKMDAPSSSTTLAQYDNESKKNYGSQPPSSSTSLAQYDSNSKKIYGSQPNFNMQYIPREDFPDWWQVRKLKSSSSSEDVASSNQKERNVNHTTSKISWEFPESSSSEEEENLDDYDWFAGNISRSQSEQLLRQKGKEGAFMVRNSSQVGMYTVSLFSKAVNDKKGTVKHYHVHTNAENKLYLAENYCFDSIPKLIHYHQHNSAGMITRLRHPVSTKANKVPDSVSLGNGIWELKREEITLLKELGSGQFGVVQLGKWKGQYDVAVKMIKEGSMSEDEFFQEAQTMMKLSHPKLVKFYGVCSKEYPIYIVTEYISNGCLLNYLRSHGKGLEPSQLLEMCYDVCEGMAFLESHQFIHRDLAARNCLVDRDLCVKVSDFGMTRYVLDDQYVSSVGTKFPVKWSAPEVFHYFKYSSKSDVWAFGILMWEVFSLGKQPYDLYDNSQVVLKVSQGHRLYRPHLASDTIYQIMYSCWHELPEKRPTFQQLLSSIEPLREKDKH
T1 sequence (Q06187 whole entry): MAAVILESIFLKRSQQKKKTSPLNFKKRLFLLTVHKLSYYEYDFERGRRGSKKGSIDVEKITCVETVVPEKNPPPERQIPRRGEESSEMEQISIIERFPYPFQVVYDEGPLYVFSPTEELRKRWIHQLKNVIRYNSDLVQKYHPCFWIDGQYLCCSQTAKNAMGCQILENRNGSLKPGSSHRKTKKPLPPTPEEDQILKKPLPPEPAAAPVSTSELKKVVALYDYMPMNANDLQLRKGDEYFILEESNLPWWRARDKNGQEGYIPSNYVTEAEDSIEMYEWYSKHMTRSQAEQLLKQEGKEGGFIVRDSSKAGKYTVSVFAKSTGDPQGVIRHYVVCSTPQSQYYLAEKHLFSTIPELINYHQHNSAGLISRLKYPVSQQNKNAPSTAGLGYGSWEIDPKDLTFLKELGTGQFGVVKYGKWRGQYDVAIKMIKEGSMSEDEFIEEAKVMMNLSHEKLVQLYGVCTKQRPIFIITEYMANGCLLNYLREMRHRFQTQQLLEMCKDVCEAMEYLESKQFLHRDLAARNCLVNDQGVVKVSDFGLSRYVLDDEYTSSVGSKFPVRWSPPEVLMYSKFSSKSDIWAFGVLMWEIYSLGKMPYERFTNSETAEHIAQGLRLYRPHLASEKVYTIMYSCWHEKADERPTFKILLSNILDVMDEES
Chain of EGFR (P00533 25-1210): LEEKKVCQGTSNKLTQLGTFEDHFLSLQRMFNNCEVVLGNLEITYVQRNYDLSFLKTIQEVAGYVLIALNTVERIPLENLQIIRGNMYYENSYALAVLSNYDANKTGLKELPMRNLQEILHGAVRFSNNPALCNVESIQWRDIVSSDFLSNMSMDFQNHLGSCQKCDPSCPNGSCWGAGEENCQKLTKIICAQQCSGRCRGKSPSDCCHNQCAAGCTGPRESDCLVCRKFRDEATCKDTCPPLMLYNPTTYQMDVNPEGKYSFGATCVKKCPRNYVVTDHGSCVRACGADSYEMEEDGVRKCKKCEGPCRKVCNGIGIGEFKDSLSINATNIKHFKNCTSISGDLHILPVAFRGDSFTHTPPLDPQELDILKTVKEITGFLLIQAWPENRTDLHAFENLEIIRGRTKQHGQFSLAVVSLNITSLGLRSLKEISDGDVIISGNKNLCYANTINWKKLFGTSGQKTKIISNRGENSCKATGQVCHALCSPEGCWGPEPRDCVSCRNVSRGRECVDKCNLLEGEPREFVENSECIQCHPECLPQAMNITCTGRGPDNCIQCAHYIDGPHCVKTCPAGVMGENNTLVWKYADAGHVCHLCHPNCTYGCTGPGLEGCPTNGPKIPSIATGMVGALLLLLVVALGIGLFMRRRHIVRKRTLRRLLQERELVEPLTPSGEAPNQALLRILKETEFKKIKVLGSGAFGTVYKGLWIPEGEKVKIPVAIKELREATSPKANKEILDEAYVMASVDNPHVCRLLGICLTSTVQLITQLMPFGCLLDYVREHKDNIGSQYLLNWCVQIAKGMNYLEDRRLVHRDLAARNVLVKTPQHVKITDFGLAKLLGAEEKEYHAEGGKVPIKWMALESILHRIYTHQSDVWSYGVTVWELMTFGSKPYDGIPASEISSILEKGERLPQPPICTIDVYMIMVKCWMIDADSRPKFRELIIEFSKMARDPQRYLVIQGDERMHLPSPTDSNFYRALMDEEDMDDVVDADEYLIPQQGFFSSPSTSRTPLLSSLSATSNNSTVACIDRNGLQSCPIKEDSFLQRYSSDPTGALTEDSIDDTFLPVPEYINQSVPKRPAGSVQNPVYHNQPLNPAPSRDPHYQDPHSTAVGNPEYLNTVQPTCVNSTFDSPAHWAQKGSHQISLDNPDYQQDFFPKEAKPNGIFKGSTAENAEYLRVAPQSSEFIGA
Chain of JAK3 (P52333 781-1124): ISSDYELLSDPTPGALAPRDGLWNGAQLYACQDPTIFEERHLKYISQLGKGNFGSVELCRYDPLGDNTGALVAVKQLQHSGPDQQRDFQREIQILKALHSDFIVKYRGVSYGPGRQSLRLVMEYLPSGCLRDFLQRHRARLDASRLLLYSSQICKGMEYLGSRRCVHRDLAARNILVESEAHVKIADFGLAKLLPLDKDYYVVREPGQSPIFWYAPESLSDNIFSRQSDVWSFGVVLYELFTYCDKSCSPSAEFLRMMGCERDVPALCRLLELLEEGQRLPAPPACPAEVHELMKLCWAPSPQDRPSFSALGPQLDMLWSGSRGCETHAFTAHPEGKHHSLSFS
Chain of FGFR4 (P22455 22-802): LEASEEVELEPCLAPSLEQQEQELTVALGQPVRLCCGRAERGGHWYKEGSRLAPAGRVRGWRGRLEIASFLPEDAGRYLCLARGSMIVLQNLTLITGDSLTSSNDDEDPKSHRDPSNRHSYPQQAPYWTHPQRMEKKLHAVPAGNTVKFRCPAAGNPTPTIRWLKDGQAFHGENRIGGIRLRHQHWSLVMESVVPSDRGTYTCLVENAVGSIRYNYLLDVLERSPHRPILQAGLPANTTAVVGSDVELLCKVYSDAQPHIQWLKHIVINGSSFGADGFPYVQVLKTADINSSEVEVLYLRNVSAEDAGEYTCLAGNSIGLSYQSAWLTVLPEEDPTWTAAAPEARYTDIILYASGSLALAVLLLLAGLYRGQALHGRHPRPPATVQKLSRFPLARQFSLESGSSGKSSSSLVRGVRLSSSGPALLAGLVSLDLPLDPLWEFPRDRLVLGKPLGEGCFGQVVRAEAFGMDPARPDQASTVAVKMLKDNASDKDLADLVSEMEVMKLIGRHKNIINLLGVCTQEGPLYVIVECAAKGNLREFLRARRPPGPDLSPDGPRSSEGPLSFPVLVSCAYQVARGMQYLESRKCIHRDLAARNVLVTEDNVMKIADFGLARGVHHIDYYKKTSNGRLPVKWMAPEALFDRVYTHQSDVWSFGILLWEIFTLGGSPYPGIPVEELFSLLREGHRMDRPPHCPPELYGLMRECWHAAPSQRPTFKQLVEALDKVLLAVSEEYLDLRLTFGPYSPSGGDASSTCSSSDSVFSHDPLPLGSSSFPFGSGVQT

- remaining activity at 1 µM (EGFR): < 50%
- remaining activity at 10 µM (EGFR): < 50%
- remaining activity at 1 µM (BTK [1]): < 50%
- remaining activity at 10 µM (BTK [1]): < 50%
- IC50 (BTK [1]): < 1 µM
- remaining activity at 1 µM (FGFR4): 50 to 90%
- remaining activity at 10 µM (FGFR4): < 50%
- remaining activity at 1 µM (JAK3): > 90%
- remaining activity at 10 µM (JAK3): 50 to 90%
- remaining activity at 1 µM (BMX): < 50%
- remaining activity at 10 µM (BMX): < 50%
- pBTK inhibition (RAMOS, 24 h) (BTK [2]): X
- remaining activity at 1 µM (RIPK2): > 90%
- remaining activity at 10 µM (RIPK2): > 90%
Structure (SMILES): CN(C)S(=O)(=O)c1c(F)c(F)c(F)c(F)c1C(=O)NCCn1nc(-c2ccc(Oc3ccccc3)cc2)c2c(N)ncnc21 [Compound I-40, N-(2-(4-amino-3-(4-phenoxyphenyl)-1H-pyrazolo[3,4-d]pyrimidin-1-yl)ethyl)-2-(N,N-dimethylsulfamoyl)-3,4,5,6-tetrafluorobenzamide]

- remaining activity at 1 µM (EGFR): < 50%
- remaining activity at 10 µM (EGFR): < 50%
- remaining activity at 1 µM (BTK [1]): < 50%
- remaining activity at 10 µM (BTK [1]): < 50%
- remaining activity at 1 µM (FGFR4): 50 to 90%
- remaining activity at 10 µM (FGFR4): < 50%
- remaining activity at 1 µM (JAK3): > 90%
- remaining activity at 10 µM (JAK3): > 90%
- remaining activity at 1 µM (BMX): < 50%
- remaining activity at 10 µM (BMX): < 50%
- IC50 (BMX): < 1 µM
- pBTK inhibition (RAMOS, 24 h) (BTK [2]): X
- remaining activity at 1 µM (RIPK2): > 90%
- remaining activity at 10 µM (RIPK2): > 90%
Structure (SMILES): CN(C)S(=O)(=O)c1c(F)c(F)c(F)c(F)c1C(=O)NCCCn1nc(-c2ccc(Oc3ccccc3)cc2)c2c(N)ncnc21 [Compound I-41, N-(3-(4-amino-3-(4-phenoxyphenyl)-1H-pyrazolo[3,4-d]pyrimidin-1-yl)propyl)-2-(N,N-dimethylsulfamoyl)-3,4,5,6-tetrafluorobenzamide]

- remaining activity at 1 µM (EGFR): 50 to 90%
- remaining activity at 10 µM (EGFR): < 50%
- remaining activity at 1 µM (BTK [1]): < 50%
- remaining activity at 10 µM (BTK [1]): 50 to 90%
- IC50 (BTK [1]): < 1 µM
- remaining activity at 1 µM (FGFR4): 50 to 90%
- remaining activity at 10 µM (FGFR4): 50 to 90%
- remaining activity at 1 µM (JAK3): > 90%
- remaining activity at 10 µM (JAK3): 50 to 90%
- remaining activity at 1 µM (BMX): < 50%
- remaining activity at 10 µM (BMX): < 50%
- IC50 (BMX): < 1 µM
- pBTK inhibition (RAMOS, 24 h) (BTK [2]): X
- remaining activity at 1 µM (RIPK2): > 90%
- remaining activity at 10 µM (RIPK2): > 90%
Structure (SMILES): Nc1ncnc2c1c(-c1ccc(Oc3ccccc3)cc1)nn2CCNC(=O)c1c(F)c(F)c(F)c(F)c1S(N)(=O)=O [Compound I-42, N-(2-(4-amino-3-(4-phenoxyphenyl)-1H-pyrazolo[3,4-d]pyrimidin-1-yl)ethyl)-2,3,4,5-tetrafluoro-6-sulfamoylbenzamide]

Continued, compound first:

Structure (SMILES): CS(=O)(=O)c1c(F)c(F)c(F)c(F)c1C(=O)NCCCn1nc(-c2ccc(Oc3ccccc3)cc2)c2c(N)ncnc21 [Compound I-39, N-(3-(4-amino-3-(4-phenoxyphenyl)-1H-pyrazolo[3,4-d]pyrimidin-1-yl)propyl)-2,3,4,5-tetrafluoro-6-(methylsulfonyl)benzamide]
- remaining activity at 1 µM (EGFR): < 50%
- remaining activity at 10 µM (EGFR): < 50%
- IC50 (EGFR; dose response, read-out: EGFR Inhibition IC50): < 1 µM
- remaining activity at 1 µM (BTK [1]): < 50%
- remaining activity at 10 µM (BTK [1]): < 50%
- IC50 (FGFR4): < 1 µM
- remaining activity at 1 µM (FGFR4): < 50%
- remaining activity at 10 µM (FGFR4): < 50%
- remaining activity at 1 µM (JAK3): 50 to 90%
- remaining activity at 10 µM (JAK3): < 50%
- remaining activity at 1 µM (BMX): < 50%
- remaining activity at 10 µM (BMX): < 50%
- pBTK inhibition (RAMOS, 24 h) (BTK [2]): X
- remaining activity at 1 µM (RIPK2): > 90%
- remaining activity at 10 µM (RIPK2): > 90%

Structure (SMILES): COCCOc1ccc(Nc2ncc(F)c(Nc3cccc(NC(=O)c4c(F)c(F)c(F)c(F)c4S(=O)(=O)N(C)C)c3)n2)cc1 [Compound I-59, 2-(N,N-dimethylsulfamoyl)-3,4,5,6-tetrafluoro-N-(3-((5-fluoro-2-((4-(2-methoxyethoxy)phenyl)amino)pyrimidin-4-yl)amino)phenyl)benzamide]
- remaining activity at 1 µM (EGFR): > 90%
- remaining activity at 10 µM (EGFR): > 90%
- remaining activity at 1 µM (BTK [1]): < 50%
- remaining activity at 10 µM (BTK [1]): < 50%
- IC50 (FGFR4): < 1 µM
- remaining activity at 1 µM (FGFR4): < 50%
- remaining activity at 10 µM (FGFR4): < 50%
- remaining activity at 1 µM (JAK3): 50 to 90%
- remaining activity at 10 µM (JAK3): 50 to 90%
- remaining activity at 1 µM (BMX): < 50%
- remaining activity at 10 µM (BMX): < 50%
- pBTK inhibition (RAMOS, 24 h) (BTK [2]): X
- remaining activity at 1 µM (RIPK2): < 50%
- remaining activity at 10 µM (RIPK2): < 50%
